Earlier results in paper PMC5423977, “Safety, pharmacokinetics, and pharmacodynamics of BMS-986142, a novel reversible BTK inhibitor, in healthy participants” (European Journal of Clinical Pharmacology, 2017).

Conditions: rats, 1-month GLP toxicology study; cited from earlier work

Cc1c(-c2c(F)cc(C(N)=O)c3[nH]c4c(c23)CC[C@H](C(C)(C)O)C4)cccc1-n1c(=O)c2cccc(F)c2n(C)c1=O [BMS-986142, 6-fluoro-5-(R)-(3-(S)-(8-fluoro-1-methyl-2,4-dioxo-1,2-dihydroquinazolin-3(4H)-yl)-2-methylphenyl)-2-(S)-(2-hydroxypropan-2-yl)-2,3,4,9-tetrahydro-1H-carbazole-8-carboxamide]
Steady-state exposure (AUC) at NOAEL: 22,920 ng h/mL
